Assays:
[1] = Liver drug concentration and bioavailability after IP dosing; format: in vivo, C57BL/6J mice; conditions: IP 20 mg/kg; for liver Cmax: 8-week-old C57BL/6J mice, mean ± SEM
Protocol: Two groups of male C57BL/6J mice (21 mice/group) at 8 weeks of age were dosed IP with 20 mg/kg AdipoRon or AdipoRonPEG5, 0.2 ml/mouse formulated as 10% DMSO/10% Cremophor/20% PEG400/60% PBS. Whole blood was harvested at seven time points post IP dosing, 10 min, 30 min, 90 min, 180 min, 360 min, 960 min, and 1,440 min. Three mice were euthanized at each time point. Plasma was processed from whole blood by centrifugation of the ACD-treated blood for 10′ at 10,000 rpm in a standard centrifuge. Additionally, the liver was harvested. The tissues were weighed and snap frozen in liquid nitrogen.
To measure liver drug concentration and bioavailability, we prepared standards by adding 98 μl blank liver homogenate to an Eppendorf, spiked with 2 μl of initial standard. For QCs, we added 98.8 μl blank liver homogenate to an Eppendorf, spiked with 1.2 μl of initial standard. For samples, we mixed 100 μl liver homogenate with 200 μl of methanol containing 0.15% formic acid and 75 ng/ml IS (IS final conc. = 50 ng/ml). The samples were vortexed 15 s, incubated at room temp for 10′, and spun 2× 13,200 rpm in a standard microcentrifuge. The supernatant was then analyzed by LC-MS/MS.

[2] = system: AMPK and ACC phosphorylation; test: Western blot of AMPK and ACC phosphorylation in liver and subcutaneous adipose tissue; format: in vivo, mouse
Protocol: Protein was extracted from the adipose tissue by homogenization in PBS supplemented with 1 mM EDTA, 20 mM NaF, 2 mM Na3VO4, and protease inhibitor cocktail. 5× RIPA buffer was added to the homogenate for a final concentration of 10 mM Tris-HCl, 2 mM EDTA, 0.3% NP40, 0.3% deoxycholate, 0.1% SDS, and 140 mM NaCl, pH 7.4. The sample was centrifuged at 10,000 g for 5 min. In total, 20–50 μg/lane of supernatant protein was separated by SDS-PAGE (NP0335BOX, Thermo Fisher) and transferred to nitrocellulose membrane. The blots were then incubated overnight at 4°C with primary antibodies (1:1,000) in a 1% BSA TBST-blocking solution. Primary antibodies are listed in supplemental Table S3. Primary antibodies were detected using secondary antibodies labeled with infrared dyes emitting at 700 nm or 800 nm (1:5,000, Li-Cor Bioscience 925-68073 and 926-32213, respectively) The Odyssey Infrared Imager was used to visualized western blots with Li-Cor IRdye secondary antibodies.

SMILES: O=C(COc1ccc(C(=O)c2ccccc2)cc1)NC1CCN(Cc2ccc(OCCOCCOCCOCCOCCO)cc2)CC1 [AdipoRonPEG5]
- higher bioavailability in the liver than AdipoRon [1]: eightfold
- liver Cmax [1]: 25509.73 ± 1436.44 ng/mL
- ACC phosphorylation in the subcutaneous adipose tissue ([2]; single treatment): enhanced
- AMPK pathway in the liver ([2]; single treatment): activated

SMILES: O=C(COc1ccc(C(=O)c2ccccc2)cc1)NC1CCN(Cc2ccccc2)CC1 [AdipoRon]
- liver Cmax [1]: 3169.30 ± 1437.09 ng/mL
- p-AMPK levels in the liver, AdipoRon versus AdipoRonPEG5 ([2]; HFD-induced obese mice): higher

Source: article PMC8327158, “PEGylated AdipoRon derivatives improve glucose and lipid metabolism under insulinopenic and high-fat diet conditions” (Journal of Lipid Research, 2021)
